Laboratory results as given in patent US20110171261A1, “IMMUNOGENIC COMPOSITION” (priority 2008, published 2011).

Experiments:
CXCR4 = molecular target: T1, CXCR4 (Homo sapiens, UniProt P61073); experiment: CXCL12-mediated (CXCR4) chemotaxis of CCRF-CEM cells, specificity; format: cell-based; conditions: 3 nM CXCL12; 2 μM CCR4 antagonists (1000 times higher than IC50); n=2
T1 construct: Expression of chemokine receptors CCR4 and CXCR4 by CCRF-CEM cells; endogenous in cells; host or cells: CCRF-CEM
Description: FIG. 2: Assessment of the specificity of CCR4 antagonists. (A) Expression of chemokine receptors CCR4 and CXCR4 by CCRF-CEM cells.
Cell migration was measured by chemotaxis through a 5 μm pore polycarbonate filter in 24-well transwell chambers (Costar, Cambridge, Mass.). Chemokines (R&D systems) were placed in lower chambers in 600 μl RPMI/1% FCS medium and cells were placed in upper chambers in 100 μl medium. After 2 h incubation at 37° C., cells in the lower chamber were recovered and counted with a FACSCalibur (Becton Dickinson, Mountain View, Calif.). Preliminary chemokine titration experiments established optimal doses for chemotaxis: (1) for CCRF-CEM cells, 6 nM CCL22 and 3 nM CCL17 or CXCL12; (2) for Tregs and Th2 cells, 1.2 nM CCL22 or CCL17. To assess CCR4 antagonism, candidate antagonist compounds (10 nM) were mixed directly with chemokines as indicated. Percent inhibition of chemotaxis by CCR4 antagonists was calculated in relation to controls treated with solvent (DMSO) alone as follows: ([no. cells migrated in the presence of DMSO—no. cells migrated in the presence of antagonist]/no. cells migrated in the presence of DMSO)×100. To measure IC50 values, graded doses of antagonists were added to a constant concentration of CCL22.
CCRF-CEM also expresses another chemokine receptor, CXCR4 (FIG. 2A), which allowed the specificity of the CCR4 antagonists to be tested. With the exception of one antagonist, the compounds had no effect on either CXCR4-mediated migration (FIG. 2B) or cell viability (data not shown), even at concentrations 1000 times higher than their IC50 values (˜2 μM)

[1] = system: CD4+CD25+ regulatory T cells; experiment: Cell viability of Tregs; format: cell-based, human
[2] = system: PPD-reactive IFN-γ-secreting cells; experiment: T cell response (IFN-γ ELISPOT and CBA) in mice after MVA85A vaccination; format: in vivo, BALB/c mice; conditions: i.m., MVA85A plus ~2.5 μM antagonist, 6 days post vaccination, splenocytes, 20 μg/ml PPD; for frequency of PPD-reactive IFN-γ-secreting cells (ELISPOT): vs DMSO; for production of IFN-γ in PPD-stimulated cultures (supernatant, CBA): 18 h
CCR4 = molecular target: T2, CCR4 (Mus musculus, UniProt P51680); experiment: CCR4-mediated migration of mouse cells in vitro; format: cell-based; conditions: data not shown
T2 construct: endogenous in cells
T2 sequence (P51680 1-360): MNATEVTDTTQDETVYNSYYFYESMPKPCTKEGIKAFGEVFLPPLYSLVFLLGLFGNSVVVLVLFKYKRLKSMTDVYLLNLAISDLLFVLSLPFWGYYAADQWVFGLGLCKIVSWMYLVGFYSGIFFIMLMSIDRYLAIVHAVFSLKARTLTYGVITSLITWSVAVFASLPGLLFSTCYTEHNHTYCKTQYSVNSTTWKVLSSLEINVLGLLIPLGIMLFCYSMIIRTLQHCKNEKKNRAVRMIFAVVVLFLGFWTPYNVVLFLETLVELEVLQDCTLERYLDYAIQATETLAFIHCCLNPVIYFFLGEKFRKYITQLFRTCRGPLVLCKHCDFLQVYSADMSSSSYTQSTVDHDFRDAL

[3] = system: antibody response to the HBsAg; experiment: ELISA of sera of mice immunised with HBsAg in SP50 adjuvant at different concentrations (Example 6); format: in vivo, Balb/c mice; conditions: s.c., 0.5 micrograms HBsAg with SP50 at 1 millimolar, 100 micromolar or 10 micromolar, boost day 14, bled 14 days later, all concentrations
Text: FIG. 7: CCR4 antagonist SP50 (Compound VIII—AF-399/42016530—4-(1-benzofuran-2-ylcarbonyl)-1-[5-(benzylsulfanyl)-1,3,4-thiadiazol-2-yl]-3-hydroxy-5-(2-thienyl)-1,5-dihydro-2H-pyrrol-2-one. MW: 531.64. Formula: C26H17N3O4S3) enhances the immunogenicity of a vaccine in vivo. The graph in FIG. 7 depicts the results of an ELISA assay of sera of mice immunised with HBsAg in different concentrations of SP50 adjuvant or of HBsAg in DMSO (negative control) or of HBsAG in the commercially used vaccine composition Engerix™. […] Each line represents the mean of a group of 4 mice.
6 week old female Balb/c mice were used, and immunised with a recombinant Hepatitis B surface antigen (HBsAg) from Biospacific, 598 Horton St no 225, Emeryville Calif. 94608, Catalogue number J44050228 lot number 4475.
Groups of 4 mice were given 0.5 micrograms of HBsAg subcutaneously in 25 microlitres of saline with an equal volume of SP50 at concentrations of 1 millimolar, 100 micromolar or 10 micromolar. Controls received 0.5 micrograms of HBsAg plus 25 microlitres of DMSO (the vehicle used to dissolve the SP50). A second control group received a dose of the alum-adjuvanted commercial Hepatitis B vaccine “Engerix” containing 0.5 micrograms of HBsAg. 14 days later the mice were boosted in an identical fashion and they were bled out a further 14 days later. […]

[4] = system: HBsAg specific antibodies; experiment: Anti-HBsAg IgG ELISA after rHBsAg vaccination of mice; format: in vivo, BALB/c mice; conditions: 14 days after second vaccination

T1 sequence (P61073 whole entry): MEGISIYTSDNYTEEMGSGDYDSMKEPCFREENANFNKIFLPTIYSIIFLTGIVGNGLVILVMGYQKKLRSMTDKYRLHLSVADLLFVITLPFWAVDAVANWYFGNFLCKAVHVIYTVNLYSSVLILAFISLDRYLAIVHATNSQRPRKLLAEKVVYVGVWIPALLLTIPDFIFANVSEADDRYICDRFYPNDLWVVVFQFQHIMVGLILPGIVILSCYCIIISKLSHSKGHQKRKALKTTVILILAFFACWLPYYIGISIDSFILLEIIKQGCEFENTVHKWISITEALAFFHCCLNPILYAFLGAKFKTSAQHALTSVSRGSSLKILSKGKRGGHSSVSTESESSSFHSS

SMILES: O=C(C1=C(O)C(=O)N(c2nnc(SCc3ccccc3Cl)s2)C1c1ccc(Cl)c(Cl)c1)c1cc2ccccc2o1 (stereo not shown) [(III)]
- effect on CXCL12-mediated chemotaxis (CXCR4-mediated migration) of CCRF-CEM cells (CXCR4): do not inhibit
- effect on cell viability [1]: None of the compounds affected cell viability

SMILES: O=C(C1=C(O)C(=O)N(c2nnc(SCc3ccc(Cl)cc3)s2)C1c1cccs1)c1cc2ccccc2o1 (stereo not shown) [(V)]
- effect on CXCL12-mediated chemotaxis (CXCR4-mediated migration) of CCRF-CEM cells (CXCR4): do not inhibit
- frequency of PPD-reactive IFN-γ-secreting cells (ELISPOT) [2]: significantly enhanced
- production of IFN-γ in PPD-stimulated cultures (supernatant, CBA) [2]: significantly greater production
- effect on cell viability [1]: None of the compounds affected cell viability
- inhibition of CCR4-mediated migration of mouse cells in vitro (CCR4): inhibit

SMILES: CCc1ccc(C2C(C(=O)c3cc4ccccc4o3)=C(O)C(=O)N2c2nnc(SCc3ccccc3F)s2)cc1 (stereo not shown) [(VI)]
- effect on CXCL12-mediated chemotaxis (CXCR4-mediated migration) of CCRF-CEM cells (CXCR4): do not inhibit
- effect on cell viability [1]: None of the compounds affected cell viability

SMILES: O=C(CSc1nc(-c2ccccc2)c(-c2ccccc2)o1)Nc1ccc(S(=O)(=O)Nc2nccs2)cc1 [(XI)]
- effect on CXCL12-mediated chemotaxis (CXCR4-mediated migration) of CCRF-CEM cells (CXCR4): do not inhibit
- effect on cell viability [1]: None of the compounds affected cell viability

SMILES: O=C(C1=C(O)C(=O)N(c2nnc(SCc3ccccc3)s2)C1c1cccs1)c1cc2ccccc2o1 (stereo not shown) [compound (VIII), 4-(1-benzofuran-2-ylcarbonyl)-1-[5-(benzylsulfanyl)-1,3,4-thiadiazol-2-yl]-3-hydroxy-5-(2-thienyl)-1,5-dihydro-2H-pyrrol-2-one]
- effect on CXCL12-mediated chemotaxis (CXCR4-mediated migration) of CCRF-CEM cells (CXCR4): do not inhibit
- frequency of PPD-reactive IFN-γ-secreting cells (ELISPOT) [2]: significantly enhanced
- production of IFN-γ in PPD-stimulated cultures (supernatant, CBA) [2]: significantly greater production
- effect on cell viability [1]: None of the compounds affected cell viability
- antibody response to the HBsAg (ELISA of sera) [3]: greater than that to Engerix™
- inhibition of CCR4-mediated migration of mouse cells in vitro (CCR4): inhibit
- IgG subclass of anti-HBsAg IgG response [4]: predominantly of the IgG1 subtype
- titer of HBsAg specific antibodies (IgG, ELISA) ([4]; s.c., rHBsAg plus compound (~2.5 μM), vs DMSO): significantly enhanced the titer of HBsAg specific antibodies to a level similar to that of Engerix-B
